In US20020041889A1, “ENHANCING AGENT FOR DEGRADATION OF DESMOSOMES OR STRATUM CORNEUM DESQUAMATION” (priority 1997, published 2002):

Each compound was assayed on desmoglein in a stratum corneum sheet (decomposition by trypsin-like and chymotrypsin-like enzymes) (assay: Percentage of residual desmoglein in stratum corneum sheets (SDS-PAGE / immunoblot with anti-desmoglein antibody)). Conditions: stratum corneum sheet (2 mg) from healthy subjects coated with 5 μl of a 5% aqueous solution of test compound; moisture content not greater than 30%; 37° C. for one week; average of three measurements; control = 100.00.
Type: biochemical, human
Procedure: Method of Evaluation (the percentage of residual desmoglein in stratum corneum sheets) This method of evaluation serves to evaluate the degree of decomposition of desmoglein in a stratum corneum sheet by trypsin-like and chymotrypsin-like enzymes, i.e., the degree of stratum corneum desquamation. […] Stratum corneum sheets were peeled from healthy subjects and soaked in an antiseptic and fungicidal solution (containing 60 μl/ml of kanamycin and 0.5% NaN3) for 30 seconds. Both sides of a stratum corneum sheet weighing 2 mg were coated with 5 μl of a 5% aqueous solution containing each of the test compounds shown in Table I below. A stratum corneum sheet coated with an aqueous solution containing no test compound was regarded as a control. These stratum corneum sheets were subjected to the following procedure. The stratum corneum sheets prepared in the above-described manner were placed under such conditions that the stratum corneum would have a moisture content of not greater than 30% at which the degradation of desmosomes was insufficient, and allowed to stand at 37° C. for one week. Thereafter, using 0.5 ml of a 0.1 M Tris buffer (pH 9) containing 9 M urea, 2% SDS and 1% mercaptoethanol, each of the stratum corneum sheets was extracted at 37° C. for 15 hours. Then, 0.7 ml of a sample buffer for SDS-PAGE (a two-fold concentrated Laemmli solution) was added to the resulting extract and heated for 15 minutes. 10 μl of this solution was taken and subjected to electrophoresis in a gel having a concentration of 7.5%. After electrophoresis, the proteins were transferred to a PVDF membrane and immunologically stained with an anti-desmoglein antibody and alkaline phosphatase-labelled secondary (anti-mouse lg) antibody. Then, the labelled protein was visualized with NBT/BCIP substrate. Thus, the amount of the desired protein was determined. Then, the above evaluation process was repeated except that the above-mentioned 5% aqueous solution of each of the test compounds was replaced with an aqueous solution which had been adjusted to contain 0.1% of L-alanine and 2.9% of N,N,N-trimethylglycine.

Compound | Percentage of residual desmoglein
CC(N)C(=O)O (racemic) [DL-Alanine] | 54.55%
NC(CO)C(=O)O (racemic) [DL-Serine] | 69.44%
C[C@@H](O)[C@H](N)C(=O)O (racemic) [DL-Threonine] | 97.50%
O=C(O)[C@@H]1CC(O)CN1 (stereo partly drawn) [4-Hydroxy-L-proline] | 83.04%
NCC(=O)O [Glycine] | 84.13%
N[C@@H](CO)C(=O)O [L-Serine] | 58.41%
C[C@@H](O)[C@H](N)C(=O)O [L-Threonine] | 90.91%
C[N+](C)(C)CC(=O)[O-] [N,N,N-Trimethylglycine] | 86.08%
CCCCCCCCCCCC(=O)NCC(=O)[O-].[K+] [N-Dodecanoylglycine potassium salt] | 78.58%
